Experimental data: US20040063662A1, “Selenophene anti-tumor agents” (priority 1996, published 2004)

Columns and labels:
[1] = system: CCRF-CEM; experiment: NCI human tumor cell panel: CCRF-CEM (Leukemia); assay type: cell-based; conditions: Leukemia; for GI50: read-out: Log10 GI50 (converted); for IC (TGI): read-out: Log10 TGI (converted)
[2] = system: SK-MEL-2; experiment: NCI human tumor cell panel: SK-MEL-2 (Melanoma); assay type: cell-based; conditions: SK-MEL-2, Melanoma; for GI50: read-out: Log10 GI50 (converted); for IC (TGI): read-out: Log10 TGI (converted)
[3] = system: SNB-19; experiment: NCI human tumor cell panel: SNB-19 (CNS Cancer); assay type: cell-based; conditions: SNB-19, CNS Cancer; for GI50: read-out: Log10 GI50 (converted); for IC (TGI): read-out: Log10 TGI (converted)
[4] = system: MCF7; experiment: NCI human tumor cell panel: MCF7 (Breast Cancer); assay type: cell-based; conditions: MCF7, Breast Cancer; for GI50: read-out: Log10 GI50 (converted); for IC (TGI): read-out: Log10 TGI (converted)
[5] = system: T-47D; experiment: NCI human tumor cell panel: T-47D (Breast Cancer); assay type: cell-based; conditions: T47D, Breast Cancer; for GI50: read-out: Log10 GI50 (converted); for IC (TGI): read-out: Log10 TGI (converted)
[6] = system: U251; experiment: NCI human tumor cell panel: U251 (CNS Cancer); assay type: cell-based; conditions: U-251, U251, CNS Cancer; for GI50: read-out: Log10 GI50 (converted); for IC (TGI): read-out: Log10 TGI (converted)
[7] = system: COLO 205; experiment: NCI human tumor cell panel: COLO 205 (Colon Cancer); assay type: cell-based; conditions: COLO 205, Colon Cancer; for GI50: read-out: Log10 GI50 (converted); for IC (TGI): read-out: Log10 TGI (converted)
[8] = system: MDA-N; experiment: NCI human tumor cell panel: MDA-N (Breast Cancer); assay type: cell-based; conditions: Breast Cancer; for GI50: read-out: Log10 GI50 (converted); for IC (TGI): read-out: Log10 TGI (converted)
[9] = system: DU-145; experiment: NCI human tumor cell panel: DU-145 (Prostate Cancer); assay type: cell-based; conditions: DU-145, Prostate Cancer; for GI50: read-out: Log10 GI50 (converted); for IC (TGI): read-out: Log10 TGI (converted)
[10] = system: SK-MEL-5; experiment: NCI human tumor cell panel: SK-MEL-5 (Melanoma); assay type: cell-based; conditions: SK-MEL-5, Melanoma; for GI50: read-out: Log10 GI50 (converted); for IC (TGI): read-out: Log10 TGI (converted)
[11] = system: NCI-H522; experiment: NCI human tumor cell panel: NCI-H522 (Non-Small Cell Lung Cancer); conditions: for GI50: NCI-H522, read-out: Log10 GI50 (converted); for IC (TGI): NCI-H522, read-out: Log10 TGI
[12] = system: HL-60(TB); experiment: NCI human tumor cell panel: HL-60(TB) (Leukemia); assay type: cell-based; conditions: Leukemia; for GI50: read-out: Log10 GI50 (converted); for IC (TGI): read-out: Log10 TGI
[13] = system: RPMI-8226; experiment: NCI human tumor cell panel: RPMI-8226 (Leukemia); assay type: cell-based; conditions: RPMI-8226, Leukemia; for GI50: read-out: Log10 GI50 (converted); for IC (TGI): read-out: Log10 TGI
[14] = system: panel of sixty different human tumor cell lines; experiment: NCI human tumor cell panel: whole panel (mean graph summary); conditions: for GI50 / CC50: Homo sapiens; for GI50: read-out: Log10 GI50, cell line not given (converted); for CC50: read-out: Log10 LC50, cell line not given (converted); for Log10 TGI: cell line not given
[15] = system: RXF-393; experiment: NCI human tumor cell panel: RXF-393 (Renal Cancer); assay type: cell-based; conditions: RXF-393, Renal Cancer; for GI50: read-out: Log10 GI50 (converted); for IC (TGI): read-out: Log10 TGI (converted)
[16] = system: M14; experiment: NCI human tumor cell panel: M14 (Melanoma); assay type: cell-based; conditions: M14, Melanoma; for GI50: read-out: Log10 GI50 (converted); for IC (TGI): read-out: Log10 TGI (converted)
[17] = system: SF-539; experiment: NCI human tumor cell panel: SF-539 (CNS Cancer); assay type: cell-based; conditions: SF-539, CNS Cancer; for GI50: read-out: Log10 GI50 (converted); for IC (TGI): read-out: Log10 TGI (converted)
[18] = system: SK-MEL-28; experiment: NCI human tumor cell panel: SK-MEL-28 (Melanoma); assay type: cell-based; conditions: SK-MEL-28, Melanoma; for GI50: read-out: Log10 GI50 (converted); for IC (TGI): read-out: Log10 TGI (converted)
[19] = system: HCC-2998; experiment: NCI human tumor cell panel: HCC-2998 (Colon Cancer); assay type: cell-based; conditions: HCC-2998, Colon Cancer; for GI50: read-out: Log10 GI50 (converted); for IC (TGI): read-out: Log10 TGI (converted)
[20] = system: SK-OV-3; experiment: NCI human tumor cell panel: SK-OV-3 (Ovarian Cancer); assay type: cell-based; conditions: SK-OV-3, Ovarian Cancer; for GI50: read-out: Log10 GI50 (converted); for IC (TGI): read-out: Log10 TGI (converted)
[21] = system: UO-31; experiment: NCI human tumor cell panel: UO-31 (Renal Cancer); assay type: cell-based; conditions: UO-31, Renal Cancer; for GI50: read-out: Log10 GI50 (converted); for IC (TGI): read-out: Log10 TGI (converted)
[22] = system: SF-268; experiment: NCI human tumor cell panel: SF-268 (CNS Cancer); assay type: cell-based; conditions: SF-268, CNS Cancer; for GI50: read-out: Log10 GI50 (converted); for IC (TGI): read-out: Log10 TGI (converted)
[23] = system: OVCAR-3; experiment: NCI human tumor cell panel: OVCAR-3 (Ovarian Cancer); assay type: cell-based; conditions: OVCAR-3, Ovarian Cancer; for GI50: read-out: Log10 GI50 (converted); for IC (TGI): read-out: Log10 TGI (converted)
[24] = system: MDA-MB-435; experiment: NCI human tumor cell panel: MDA-MB-435 (Breast Cancer); assay type: cell-based; conditions: MDA-MB-435, Breast Cancer; for GI50: read-out: Log10 GI50 (converted); for IC (TGI): read-out: Log10 TGI (converted)
[25] = system: NCI-H322M; experiment: cells; assay type: cell-based; conditions: Homo sapiens, Non-Small Cell Lung Cancer; for GI50: read-out: Log10 GI50 (converted); for IC (TGI): read-out: Log10 TGI (converted)
[26] = system: NCI-H226; experiment: NCI human tumor cell panel: NCI-H226 (Non-Small Cell Lung Cancer); assay type: cell-based; conditions: NCI-H226, Non-Small Cell Lung Cancer; for GI50: read-out: Log10 GI50 (converted); for IC (TGI): read-out: Log10 TGI (converted)
[27] = system: CAKI-1; experiment: NCI human tumor cell panel: CAKI-1 (Renal Cancer); assay type: cell-based; conditions: CAKI-1, Renal Cancer
[28] = system: MDA-MB-231/ATCC; experiment: NCI human tumor cell panel: MDA-MB-231/ATCC (Breast Cancer); assay type: cell-based; conditions: Homo sapiens, MDA-MB-231, MDA-MB-231/ATCC, Breast Cancer; for GI50: read-out: Log10 GI50 (converted); for IC (TGI): read-out: Log10 TGI (converted)

## O=Cc1ccc(-c2ccc(-c3cccs3)[se]2)s1 [NSC 675346]
[1]
  GI50: > 100 µM
  IC (TGI): > 100 µM
[2]
  GI50: 24.5 µM
  IC (TGI): > 100 µM
[3]
  GI50: 21.9 µM
  IC (TGI): 95.5 µM
[4]
  GI50: 0.813 µM
  IC (TGI): > 100 µM
[5]
  GI50: 18.2 µM
  IC (TGI): 40.7 µM
[6]
  GI50: 0.0575 µM
  IC (TGI): 25.7 µM
[7]
  GI50: 4.79 µM
  IC (TGI): > 100 µM
[8]
  GI50: > 100 µM
  IC (TGI): > 100 µM
[9]
  GI50: 28.8 µM
  IC (TGI): > 100 µM
[10]
  GI50: 46.8 µM
  IC (TGI): > 100 µM
[11]
  GI50: 33.1 µM
  IC (TGI): > 100 µM
[12]
  GI50: > 100 µM
  IC (TGI): > 100 µM
[13]
  GI50: > 100 µM
  IC (TGI): > 100 µM
[14]
  GI50: 1.7 µM
  CC50: > 100 µM
  Log10 TGI: >−4.00
[15]
  GI50: 16.2 µM
  IC (TGI): 42.7 µM
[16]
  GI50: 28.2 µM
  IC (TGI): > 100 µM
[17]
  GI50: 51.3 µM
  IC (TGI): > 100 µM
[18]
  GI50: 44.7 µM
  IC (TGI): > 100 µM
[19]
  GI50: 0.234 µM
[20]
  GI50: 12.6 µM
  IC (TGI): > 100 µM
[21]
  GI50: 35.5 µM
  IC (TGI): > 100 µM
[22]
  GI50: 19.1 µM
  IC (TGI): > 100 µM
[23]
  GI50: 0.0191 µM
  IC (TGI): 21.4 µM
[24]
  GI50: 28.2 µM
  IC (TGI): 87.1 µM
[25]
  GI50: 12.9 µM
  IC (TGI): > 100 µM
[26]
  GI50: 0.0174 µM
  IC (TGI): 0.12 µM

## O=Cc1ccc(-c2ccc(-c3ccc(C=O)s3)[se]2)s1 [NSC 675345]
[1]
  GI50: > 100 µM
  IC (TGI): > 100 µM
[2]
  GI50: 77.6 µM
  IC (TGI): > 100 µM
[3]
  GI50: 31.6 µM
  IC (TGI): > 100 µM
[4]
  GI50: 0.724 µM
  IC (TGI): 5.62 µM
[5]
  GI50: 79.4 µM
  IC (TGI): > 100 µM
[6]
  GI50: 2.29 µM
  IC (TGI): 21.4 µM
[7]
  GI50: 33.9 µM
  IC (TGI): > 100 µM
[8]
  GI50: > 100 µM
  IC (TGI): > 100 µM
[9]
  GI50: > 100 µM
  IC (TGI): > 100 µM
[10]
  GI50: > 100 µM
  IC (TGI): > 100 µM
[11]
  GI50: 85.1 µM
  IC (TGI): > 100 µM
[12]
  GI50: > 100 µM
[13]
  GI50: > 100 µM
  IC (TGI): > 100 µM
[27]; read-out: Log10 GI50 (converted)
  GI50: 32.4 µM
[27]; read-out: Log10 TGI (converted)
  IC (TGI): > 100 µM
[28]
  GI50: 18.2 µM
  IC (TGI): > 100 µM
[15]
  GI50: > 100 µM
  IC (TGI): > 100 µM
[16]
  GI50: > 100 µM
  IC (TGI): > 100 µM
[17]
  GI50: > 100 µM
  IC (TGI): > 100 µM
[18]
  GI50: > 100 µM
  IC (TGI): > 100 µM
[19]
  GI50: 2.34 µM
  IC (TGI): 6.92 µM
[20]
  GI50: 55 µM
  IC (TGI): > 100 µM
[22]
  GI50: > 100 µM
  IC (TGI): > 100 µM
[23]
  GI50: 2.19 µM
  IC (TGI): > 100 µM
[24]
  GI50: 58.9 µM
  IC (TGI): > 100 µM
[25]
  GI50: > 100 µM
  IC (TGI): > 100 µM
[26]
  GI50: 0.575 µM
  IC (TGI): 2.45 µM

## OCc1ccc(-c2ccc(-c3cccs3)[se]2)s1 [NSC 675344]
[1]
  GI50: > 100 µM
  IC (TGI): > 100 µM
[2]
  GI50: > 100 µM
  IC (TGI): > 100 µM
[3]
  GI50: 29.5 µM
  IC (TGI): > 100 µM
[4]
  GI50: 0.126 µM
  IC (TGI): > 100 µM
[5]
  GI50: 0.617 µM
  IC (TGI): > 100 µM
[6]
  GI50: 0.0251 µM
  IC (TGI): 26.3 µM
[8]
  GI50: > 100 µM
  IC (TGI): > 100 µM
[9]
  GI50: 36.3 µM
  IC (TGI): > 100 µM
[10]
  GI50: > 100 µM
  IC (TGI): > 100 µM
[11]
  GI50: > 100 µM
  IC (TGI): > 100 µM
[12]
  GI50: > 100 µM
  IC (TGI): > 100 µM
[13]
  GI50: > 100 µM
  IC (TGI): > 100 µM
[14]
  GI50: 0.0871 µM
  CC50: > 100 µM
  Log10 TGI: >−4.00
[28]
  GI50: 19.1 µM
  IC (TGI): > 100 µM
[15]
  GI50: 15.8 µM
  IC (TGI): 52.5 µM
[16]
  GI50: > 100 µM
  IC (TGI): > 100 µM
[17]
  GI50: > 100 µM
  IC (TGI): > 100 µM
[18]
  GI50: > 100 µM
  IC (TGI): > 100 µM
[19]
  GI50: 0.257 µM
  IC (TGI): 1.62 µM
[20]
  GI50: 16.6 µM
  IC (TGI): > 100 µM
[21]
  GI50: > 100 µM
  IC (TGI): > 100 µM
[22]
  GI50: 23.4 µM
  IC (TGI): > 100 µM
[23]
  GI50: < 0.01 µM
  IC (TGI): > 100 µM
[24]
  GI50: > 100 µM
  IC (TGI): > 100 µM
[25]
  GI50: 20.9 µM
  IC (TGI): > 100 µM
[26]
  GI50: < 0.01 µM
  IC (TGI): < 0.01 µM
